Test results published in patent publication US9326973B2, “Hepatitis C virus inhibitors” (priority 2012, dated 2016).

Test system: HCV replicon, genotype-1a variant with glutamine 30 changed to glutamate in the NS5A protein
Experiment: microbe, parasite or virus in culture
Format: cell-based, HCV genotype 1a
Details: HCV replicon genotype 1a Q30E (Q→E) variant; test compound titrated with an NS5A-targeting compound (BMS-790052 fixed at 200 nM); ranking of synergist activity
Method in brief: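 Synergy was assessed by combining several fixed amounts of an NS5A-targeting compound with a titration of the second compound of interest.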

COC(=O)N[C@@H](C(=O)N[C@@H](C)c1nc(-c2ccc(-c3ccc(-c4c[nH]c([C@H](C)NC(=O)[C@H](NC(=O)OC)C(C)C)n4)cc3)cc2)c[nH]1)C(C)C [Compound N-37]
Fold-Synergistic 1a (Q30E): >10 fold

COC(=O)N[C@H](C(=O)N[C@@H](C)c1nc(-c2ccc(-c3ccc(-c4c[nH]c([C@H](C)NC(=O)[C@@H](NC(=O)OC)C(C)C)n4)cc3)cc2)c[nH]1)C(C)C [Compound N-38]
Fold-Synergistic 1a (Q30E): <10 fold

CC(C)CC(=O)N[C@@H](C)c1nc(-c2ccc(-c3ccc(-c4c[nH]c([C@H](C)NC(=O)CC(C)C)n4)cc3)cc2)c[nH]1 [Compound N-39]
Fold-Synergistic 1a (Q30E): >10 fold

CC[C@H](NC(=O)[C@H](NC(=O)OC)C(C)C)c1nc(-c2ccc(-c3ccc(-c4c[nH]c([C@H](CC)NC(=O)[C@H](NC(=O)OC)C(C)C)n4)cc3)cc2)c[nH]1 [Compound N-40]
Fold-Synergistic 1a (Q30E): >100 fold

CC[C@H](NC(=O)[C@@H](NC(=O)OC)C(C)C)c1nc(-c2ccc(-c3ccc(-c4c[nH]c([C@H](CC)NC(=O)[C@@H](NC(=O)OC)C(C)C)n4)cc3)cc2)c[nH]1 [Compound N-41]
Fold-Synergistic 1a (Q30E): >10 fold

CC[C@H](NC(=O)CC(C)C)c1nc(-c2ccc(-c3ccc(-c4c[nH]c([C@H](CC)NC(=O)CC(C)C)n4)cc3)cc2)c[nH]1 [Compound N-42]
Fold-Synergistic 1a (Q30E): >100 fold

COC(=O)N[C@@H](C(=O)N[C@H](c1nc(-c2ccc(-c3ccc(-c4c[nH]c([C@@H](NC(=O)[C@H](NC(=O)OC)C(C)C)C5CCCC5)n4)cc3)cc2)c[nH]1)C1CCCC1)C(C)C [Compound N-43]
Fold-Synergistic 1a (Q30E): >10 fold

CC(C)(C)C(=O)N[C@H](c1nc(-c2ccc(-c3ccc(-c4c[nH]c([C@@H](NC(=O)C(C)(C)C)C5CCCC5)n4)cc3)cc2)c[nH]1)C1CCCC1 [Compound N-44]
Fold-Synergistic 1a (Q30E): >100 fold

CC(C)(C)[C@H](NC(=O)C12CC3CC(CC(C3)C1)C2)c1nc(-c2ccc(-c3ccc(-c4c[nH]c([C@@H](NC(=O)C56CC7CC(CC(C7)C5)C6)C(C)(C)C)n4)cc3)cc2)c[nH]1 [Compound N-62]
Fold-Synergistic 1a (Q30E): >100 fold

CC(C)[C@H](NC(=O)C1(C)CCCCC1)c1nc(-c2ccc3c(c2)Cc2cc(-c4c[nH]c([C@@H](NC(=O)C5(C)CCCCC5)C(C)C)n4)ccc2-3)c[nH]1 [Compound N-69]
Fold-Synergistic 1a (Q30E): >100 fold

CC(C)[C@H](NC(=O)C1CCC(F)(F)CC1)c1nc(-c2ccc3c(c2)Cc2cc(-c4c[nH]c([C@@H](NC(=O)C5CCC(F)(F)CC5)C(C)C)n4)ccc2-3)c[nH]1 [Compound N-70]
Fold-Synergistic 1a (Q30E): >100 fold

CC(C)[C@H](NC(=O)C1CC(F)(F)C1)c1nc(-c2ccc3c(c2)Cc2cc(-c4c[nH]c([C@@H](NC(=O)C5CC(F)(F)C5)C(C)C)n4)ccc2-3)c[nH]1 [Compound N-71]
Fold-Synergistic 1a (Q30E): >100 fold

CC(C)[C@H](NC(=O)C1(C)CCCC1)c1nc(-c2ccc3c(c2)Cc2cc(-c4c[nH]c([C@@H](NC(=O)C5(C)CCCC5)C(C)C)n4)ccc2-3)c[nH]1 [Compound N-72]
Fold-Synergistic 1a (Q30E): >100 fold

CC(C)[C@H](NC(=O)c1cc(Cl)ccc1F)c1nc(-c2ccc3c(c2)Cc2cc(-c4c[nH]c([C@@H](NC(=O)c5cc(Cl)ccc5F)C(C)C)n4)ccc2-3)c[nH]1 [Compound N-73]
Fold-Synergistic 1a (Q30E): >100 fold

CC(C)[C@H](NC(=O)C(C)(C)F)c1nc(-c2ccc3c(c2)CCc2cc(-c4c[nH]c([C@@H](NC(=O)C(C)(C)F)C(C)C)n4)ccc2-3)c[nH]1 [Compound N-75]
Fold-Synergistic 1a (Q30E): >100 fold

CC(C)[C@H](NC(=O)c1cc(Cl)ccc1F)c1nc(-c2ccc3c(c2)CCc2cc(-c4c[nH]c([C@@H](NC(=O)c5cc(Cl)ccc5F)C(C)C)n4)ccc2-3)c[nH]1 [Compound N-76]
Fold-Synergistic 1a (Q30E): >100 fold

Cc1cc(-c2ccc(-c3c[nH]c([C@@H](NC(=O)C4CC(F)(F)C4)C(C)C)n3)cc2)ccc1-c1c[nH]c([C@@H](NC(=O)C2CC(F)(F)C2)C(C)C)n1 [Compound N-78]
Fold-Synergistic 1a (Q30E): >100 fold

Cc1cc(-c2ccc(-c3c[nH]c([C@@H](NC(=O)C4(C)CCCCC4)C(C)C)n3)cc2)ccc1-c1c[nH]c([C@@H](NC(=O)C2(C)CCCCC2)C(C)C)n1 [Compound N-79]
Fold-Synergistic 1a (Q30E): >100 fold

Cc1cc(-c2ccc(-c3c[nH]c([C@@H](NC(=O)C4(C)CCCC4)C(C)C)n3)cc2)ccc1-c1c[nH]c([C@@H](NC(=O)C2(C)CCCC2)C(C)C)n1 [Compound N-80]
Fold-Synergistic 1a (Q30E): >100 fold

Cc1cc(-c2ccc(-c3c[nH]c([C@@H](NC(=O)c4c(F)cccc4Cl)C(C)C)n3)cc2)ccc1-c1c[nH]c([C@@H](NC(=O)c2c(F)cccc2Cl)C(C)C)n1 [Compound N-81]
Fold-Synergistic 1a (Q30E): >100 fold

Cc1cc(-c2ccc(-c3c[nH]c([C@@H](NC(=O)C4CCC(F)(F)CC4)C(C)C)n3)cc2)ccc1-c1c[nH]c([C@@H](NC(=O)C2CCC(F)(F)CC2)C(C)C)n1 [Compound N-82]
Fold-Synergistic 1a (Q30E): >100 fold

Cc1cc(-c2ccc(-c3c[nH]c([C@@H](NC(=O)C4(C)CCC(F)(F)CC4)C(C)C)n3)cc2)ccc1-c1c[nH]c([C@@H](NC(=O)C2(C)CCC(F)(F)CC2)C(C)C)n1 [Compound N-84]
Fold-Synergistic 1a (Q30E): >100 fold

COC(C)(C)C(=O)N[C@H](c1nc(-c2ccc(-c3ccc(-c4c[nH]c([C@@H](NC(=O)C(C)(C)OC)C(C)(C)C)n4)c(C)c3)cc2)c[nH]1)C(C)(C)C [Compound N-85]
Fold-Synergistic 1a (Q30E): >100 fold

Cc1cc(-c2ccc(-c3c[nH]c([C@@H](NC(=O)C(C)(C)C)C(C)(C)C)n3)cc2)ccc1-c1c[nH]c([C@@H](NC(=O)C(C)(C)C)C(C)(C)C)n1 [Compound N-86]
Fold-Synergistic 1a (Q30E): >100 fold

COC(C)(C)C(=O)N[C@H](c1nc(-c2ccc(-c3ccc(-c4c[nH]c([C@@H](NC(=O)C(C)(C)OC)C(C)C)n4)c(F)c3)cc2)c[nH]1)C(C)C [Compound N-87]
Fold-Synergistic 1a (Q30E): >100 fold

CC(C)[C@H](NC(=O)c1cc(Cl)ccc1F)c1nc(-c2ccc(-c3ccc(-c4c[nH]c([C@@H](NC(=O)c5cc(Cl)ccc5F)C(C)C)n4)c(F)c3)cc2)c[nH]1 [Compound N-88]
Fold-Synergistic 1a (Q30E): >100 fold

CC(C)[C@H](NC(=O)C(C)(C)C)c1nc(-c2ccc(-c3ccc(-c4c[nH]c([C@@H](NC(=O)C(C)(C)C)C(C)C)n4)c(F)c3)cc2)c[nH]1 [Compound N-89]
Fold-Synergistic 1a (Q30E): >100 fold

CC(C)[C@H](NC(=O)C(C)(C)F)c1nc(-c2ccc(-c3ccc(-c4c[nH]c([C@@H](NC(=O)C(C)(C)F)C(C)C)n4)c(F)c3)cc2)c[nH]1 [Compound N-90]
Fold-Synergistic 1a (Q30E): >100 fold

CC(C)[C@H](NC(=O)C(C)(C)OCC(F)F)c1nc(-c2ccc(-c3ccc(-c4c[nH]c([C@@H](NC(=O)C(C)(C)OCC(F)F)C(C)C)n4)c(F)c3)cc2)c[nH]1 [Compound N-91]
Fold-Synergistic 1a (Q30E): >100 fold

CC(C)[C@H](NC(=O)c1ccccc1F)c1nc(-c2ccc(-c3ccc(-c4c[nH]c([C@@H](NC(=O)c5ccccc5F)C(C)C)n4)c(F)c3)cc2)c[nH]1 [Compound N-92]
Fold-Synergistic 1a (Q30E): >100 fold

CC(C)(C)C(=O)N[C@H](c1nc(-c2ccc(-c3ccc(-c4c[nH]c([C@@H](NC(=O)C(C)(C)C)C(C)(C)C)n4)c(F)c3)cc2)c[nH]1)C(C)(C)C [Compound N-93]
Fold-Synergistic 1a (Q30E): >100 fold

COC(C)(C)C(=O)N[C@H](c1nc(-c2ccc(-c3ccc(-c4c[nH]c([C@@H](NC(=O)C(C)(C)OC)C(C)(C)C)n4)c(F)c3)cc2)c[nH]1)C(C)(C)C [Compound N-94]
Fold-Synergistic 1a (Q30E): >100 fold

CC(C)(C)[C@H](NC(=O)c1ccccc1F)c1nc(-c2ccc(-c3ccc(-c4c[nH]c([C@@H](NC(=O)c5ccccc5F)C(C)(C)C)n4)c(F)c3)cc2)c[nH]1 [Compound N-95]
Fold-Synergistic 1a (Q30E): >100 fold

COC(C)(C)C(=O)N[C@H](c1nc(-c2ccc(-c3ccc(-c4c[nH]c([C@@H](NC(=O)C(C)(C)OC)C(C)C)n4)cc3F)cc2)c[nH]1)C(C)C [Compound N-96]
Fold-Synergistic 1a (Q30E): >100 fold

CC(C)[C@H](NC(=O)C(C)(C)F)c1nc(-c2ccc(-c3ccc(-c4c[nH]c([C@@H](NC(=O)C(C)(C)F)C(C)C)n4)cc3F)cc2)c[nH]1 [Compound N-97]
Fold-Synergistic 1a (Q30E): >100 fold

CC(C)[C@H](NC(=O)C(C)(C)OCC(F)F)c1nc(-c2ccc(-c3ccc(-c4c[nH]c([C@@H](NC(=O)C(C)(C)OCC(F)F)C(C)C)n4)cc3F)cc2)c[nH]1 [Compound N-98]
Fold-Synergistic 1a (Q30E): >100 fold

CC(C)[C@H](NC(=O)c1cc(Cl)ccc1F)c1nc(-c2ccc(-c3ccc(-c4c[nH]c([C@@H](NC(=O)c5cc(Cl)ccc5F)C(C)C)n4)cc3F)cc2)c[nH]1 [Compound N-99]
Fold-Synergistic 1a (Q30E): >100 fold

CC(C)[C@H](NC(=O)C(C)(C)C)c1nc(-c2ccc(-c3ccc(-c4c[nH]c([C@@H](NC(=O)C(C)(C)C)C(C)C)n4)cc3F)cc2)c[nH]1 [Compound N-100]
Fold-Synergistic 1a (Q30E): >100 fold

COC(C)(C)C(=O)N[C@H](c1nc(-c2ccc(-c3ccc(-c4c[nH]c([C@@H](NC(=O)C(C)(C)OC)C(C)C)n4)cn3)cc2)c[nH]1)C(C)C [Compound N-102]
Fold-Synergistic 1a (Q30E): >100 fold

CC(C)[C@H](NC(=O)C(C)(C)C)c1nc(-c2ccc(-c3ccc(-c4c[nH]c([C@@H](NC(=O)C(C)(C)C)C(C)C)n4)cn3)cc2)c[nH]1 [Compound N-103]
Fold-Synergistic 1a (Q30E): >100 fold

CC(C)(C)[C@H](NC(=O)C1CCC(F)(F)CC1)c1nc(-c2ccc(-c3cnc(-c4c[nH]c([C@@H](NC(=O)C5CCC(F)(F)CC5)C(C)(C)C)n4)cn3)cc2)c[nH]1 [Compound N-104]
Fold-Synergistic 1a (Q30E): >100 fold
